Source: the Deep4Chem optical property database
Blank lines part the entries; values can stand above or below the compound they belong to.

Assay: photoluminescence quantum yield (fraction); solvent given as SMILES

photoluminescence quantum yield (in ClCCl): 0.55
Structure (SMILES): C(=C\c1cc(/C=C/c2ccc(N(c3ccccc3)c3ccccc3)cc2)ncn1)/c1ccc(N(c2ccccc2)c2ccccc2)cc1

photoluminescence quantum yield (in c1ccccc1): 0.604
Structure (SMILES): O=c1oc2c(ccc3cc(O)ccc32)nc1-c1ccccc1

photoluminescence quantum yield (in C1CCCCC1): 0.07
photoluminescence quantum yield (in CC#N): 0.03
photoluminescence quantum yield (in CO): 0.04
photoluminescence quantum yield (in ClC(Cl)Cl): 0.02
Structure (SMILES): CC1(C)CC(NCc2ccc3ccc4cccc5ccc2c3c45)CC(C)(C)N1[O]

photoluminescence quantum yield (in CC#N): 0.27
photoluminescence quantum yield (in CO): 0.27
Structure (SMILES): c1ccc(-c2nc(-c3ccccc3)c(-c3ccccc3)[nH]2)cc1

photoluminescence quantum yield (in C1CCCCC1): 0.65
Structure (SMILES): COc1ccc([Si](C)(C)C)c2ccccc12

photoluminescence quantum yield (in c1ccccc1): 0.064
Structure (SMILES): CCOC(=O)c1sc2nc(-c3ccc(OC)cc3)c(C)c(C#N)c2c1N

photoluminescence quantum yield (in ClCCl): 0.17
Structure (SMILES): c1ccc(B2Nc3cc4c(cc3-c3sccc32)NB(c2ccccc2)c2ccsc2-4)cc1

photoluminescence quantum yield (in ClCCl): 0.19
Structure (SMILES): COc1ccc(-c2cnc(-c3ccccc3)o2)cc1OC

photoluminescence quantum yield (in C1COCCO1): 0.53
photoluminescence quantum yield (in CC#N): 0.54
photoluminescence quantum yield (in CCCCO): 0.27
photoluminescence quantum yield (in CCO): 0.07
photoluminescence quantum yield (in CO): 0.1
photoluminescence quantum yield (in O): 0.41
Structure (SMILES): O=C(O)c1cc2c(ccc3ccccc32)oc1=O

photoluminescence quantum yield (in CCO): 0.42
Structure (SMILES): CC1(C)Nc2cc3nc4cc(Cl)c(Cl)cc4nc3cc2N1

photoluminescence quantum yield (in ClCCl): 0.52
Structure (SMILES): c1ccc(C2=C(c3ccccc3)c3cccc4c5c(cc(c34)O2)=NC2CCCCC2N=5)cc1 (stereo unspecified)

photoluminescence quantum yield (in ClC(Cl)Cl): 0.155
Structure (SMILES): CCCCCCCCCCCCSc1cc2c3c(ccc4c5c(SCCCCCCCCCCCC)cc6c7c(ccc(c1c34)c75)C(=O)N(C1CCCCC1)C6=O)C(=O)N(C1CCCCC1)C2=O

photoluminescence quantum yield (in ClCCl): 0.29
Structure (SMILES): F[B-]12Oc3ccccc3-c3c4[n+]5c(c([n+]31)-c1ccccc1O2)-c1ccccc1O[B-]5(F)Oc1ccccc1-4

photoluminescence quantum yield (in ClCCl): 0.0027
Structure (SMILES): CC(=O)c1c(N[C@@H](CC(C)C)C(=O)O)c2ccc(N(C)C)cc2oc1=O

photoluminescence quantum yield (in ClCCl): 0.48
Structure (SMILES): CCCCc1ccc(C#Cc2ccc3nc4ccc(C#Cc5ccc(CCCC)cc5)cn4c(=O)c3c2)cc1

photoluminescence quantum yield (in ClCCl): 0.15
Structure (SMILES): CC1=C(C#Cc2ccc([Si](c3ccccc3)(c3ccccc3)c3ccccc3)cc2)C(C)=[N+]2C1=C(c1ccccc1)c1c(C)c(C#Cc3ccc([Si](c4ccccc4)(c4ccccc4)c4ccccc4)cc3)c(C)n1[B-]2(F)F

photoluminescence quantum yield (in O): 0.65
Structure (SMILES): Cc1cc(-c2ccc(-c3n(C)c4ccccc4[n+]3C)cc2)ccc1-c1ccc(-c2n(C)c3ccccc3[n+]2C)cc1

The next lines start with the compound.

Structure (SMILES): CC(C)c1cccc(C(C)C)c1-n1c(=O)c2cc3nc(-c4ccccc4)c4cc5c(=O)n(-c6c(C(C)C)cccc6C(C)C)c(=O)c6cc7c(-c8ccccc8)nc8cc(c1=O)c2c1c3c4c(c56)c7c81
photoluminescence quantum yield (in ClC(Cl)Cl): 0.1

Structure (SMILES): C(=C\c1ccc(-c2nc3c4cccnc4c4ncccc4c3[nH]2)cc1)/c1ccncc1
photoluminescence quantum yield (in C1CCOC1): 0.54
photoluminescence quantum yield (in CC#N): 0.32
photoluminescence quantum yield (in CO): 0.19
photoluminescence quantum yield (in ClCCl): 0.48

Structure (SMILES): N#C/C(=N/Nc1ccc(C#N)cc1)c1nc(-c2ccccc2)cs1
photoluminescence quantum yield (in CC#N): 0
photoluminescence quantum yield (in CCO): 0.0001
photoluminescence quantum yield (in CN(C)C=O): 0
photoluminescence quantum yield (in Cc1ccccc1): 0.0001
photoluminescence quantum yield (in ClCCl): 0.0001

Structure (SMILES): Cc1cc(-c2ccc(-c3nc4ccccc4[nH]3)cc2)ccc1-c1ccc(-c2nc3ccccc3[nH]2)cc1
photoluminescence quantum yield (in CN(C)C=O): 0.82

Structure (SMILES): O=C1c2ccccc2-c2c(-c3cc(Cl)ccc3O)[nH]c(=O)n21
photoluminescence quantum yield (in CC#N): 0.61
photoluminescence quantum yield (in CO): 0.28
photoluminescence quantum yield (in ClCCl): 0.78

Structure (SMILES): Cc1ccccc1C1=C2C=c3c(oc4ccccc34)=[N+]2[B-](F)(F)n2c1cc1c3ccccc3oc12
photoluminescence quantum yield (in C1CCCCC1): 0.88
photoluminescence quantum yield (in CCOC(C)=O): 0.93
photoluminescence quantum yield (in CO): 0.88

Structure (SMILES): F[B-]1(F)n2c(c3ccccc3c2-c2ccccc2)C(c2ccccc2)=C2c3ccccc3C(c3ccccc3)=[N+]21
photoluminescence quantum yield (in ClCCl): 0.93

Structure (SMILES): CC1(C)c2ccccc2-c2ccc(N3c4ccc(-c5ccc(/C=C6\C(=O)c7ccc(C(=O)O)cc7C6=O)s5)cc4C4CCCC43)cc21 (stereo unspecified)
photoluminescence quantum yield (in ClC(Cl)Cl): 0.18

Structure (SMILES): Cc1c(C)c(B(c2c(C)c(C)c(N3c4ccccc4Oc4ccccc43)c(C)c2C)c2c(C)c(C)c(N3c4ccccc4Oc4ccccc43)c(C)c2C)c(C)c(C)c1C#N
photoluminescence quantum yield (in c1ccc([Si](c2ccccc2)(c2ccc(-n3c4ccccc4c4ccccc43)cc2)c2ccc(-n3c4ccccc4c4ccccc43)cc2)cc1): 0.75

Structure (SMILES): c1ccc(-c2nc(-c3ccccc3)c(N(c3ccccc3)c3ccccc3)s2)cc1
photoluminescence quantum yield (in ClC(Cl)Cl): 0.43

Structure (SMILES): CCOC(=O)c1cc(C(=O)O)nc2cc(OC)ccc12
photoluminescence quantum yield (in CCO): 0.15

Structure (SMILES): CCCCCCCCOc1ccc(-c2c3c4n(c(-c5ccc(OCCCCCCCC)cc5)c3c3n2[B-](c2ccccc2)(c2ccccc2)[n+]2c(ccc5cc(C(C)(C)C)ccc52)C=3C#N)[B-](c2ccccc2)(c2ccccc2)[n+]2c(ccc3cc(C(C)(C)C)ccc32)C=4C#N)cc1
photoluminescence quantum yield (in ClC(Cl)Cl): 0.53

Structure (SMILES): c1ccc2c(c1)Oc1ccccc1N2c1ccc2c(c1)c1ccccc1n1ccnc21
photoluminescence quantum yield (in O=P(c1ccccc1)(c1ccccc1)c1ccccc1Oc1ccccc1P(=O)(c1ccccc1)c1ccccc1): 0.27

Structure (SMILES): c1ccc(-c2cn3ccc[n+]3[n-]2)cc1
photoluminescence quantum yield (in ClCCl): 0.03

Structure (SMILES): Clc1ccc2cc3cccc[n+]3cc2c1
photoluminescence quantum yield (in O): 0.2

Structure (SMILES): CC1(C)CCc2c(c3ccccc3c3nc4c5c(c6ccccc6c4nc23)OC(C)(C)CC5)O1
photoluminescence quantum yield (in C1CCCCC1): 0.38
photoluminescence quantum yield (in C1CCOC1): 0.34
photoluminescence quantum yield (in C1COCCO1): 0.26
photoluminescence quantum yield (in CC#N): 0.61
photoluminescence quantum yield (in CC(C)O): 0.53
photoluminescence quantum yield (in CCCCCC): 0.31
photoluminescence quantum yield (in CN(C)C=O): 0.57
photoluminescence quantum yield (in CO): 0.62
photoluminescence quantum yield (in ClC(Cl)Cl): 0.43
photoluminescence quantum yield (in c1ccccc1): 0.42

Structure (SMILES): CC(C)(C)c1ccc2oc(-c3ccc(-c4nc5cc(C(C)(C)C)ccc5o4)s3)nc2c1
photoluminescence quantum yield (in C1CCCCC1): 0.8
photoluminescence quantum yield (in C1CCOC1): 0.78
photoluminescence quantum yield (in CC1CCCCC1): 0.66
photoluminescence quantum yield (in CC#N): 0.76
photoluminescence quantum yield (in CCCCO): 1
photoluminescence quantum yield (in CCO): 1
photoluminescence quantum yield (in CN(C)C=O): 0.87
photoluminescence quantum yield (in Cc1ccccc1): 1
photoluminescence quantum yield (in Clc1ccccc1Cl): 0.96
photoluminescence quantum yield (in c1ccccc1): 0.82

Structure (SMILES): CC1=[N+]2C(=C(c3ccccc3)c3ccc(C)n3[B-]2(F)F)C=C1
photoluminescence quantum yield (in C1CCCCC1): 0.29
photoluminescence quantum yield (in C1CCOC1): 0.25
photoluminescence quantum yield (in CC#N): 0.17
photoluminescence quantum yield (in CCOC(C)=O): 0.25
photoluminescence quantum yield (in CO): 0.19
photoluminescence quantum yield (in Cc1ccccc1): 0.42
photoluminescence quantum yield (in ClC(Cl)Cl): 0.38

Structure (SMILES): BrCCCCCCCCCCCCOc1cc2ccc3cccc4ccc(c1)c2c34
photoluminescence quantum yield (in Cc1ccccc1): 0.59

Structure (SMILES): CCOC(=O)c1c2c3c(ccc(Br)c3c3cc4c(cc13)[Si](C)(C)O[Si]4(C)C)N(C)C2=O
photoluminescence quantum yield (in CC#N): 0.31

Structure (SMILES): CC(C)(C)c1ccc2c(c1)c1cc(C(C)(C)C)ccc1n2-c1ccc(S(=O)(=O)c2ccc(-n3c4ccc(C(C)(C)C)cc4c4cc(C(C)(C)C)ccc43)cn2)nc1
photoluminescence quantum yield (in O=P(c1ccccc1)(c1ccccc1)c1ccc2sc3cccc(P(=O)(c4ccccc4)c4ccccc4)c3c2c1): 0.62

Structure (SMILES): CCN1/C(=C/C=C/C2=[N+](C)c3ccccc3C2(C)C)C(C)(C)c2ccccc21
photoluminescence quantum yield (in CS(C)=O): 0.07

Structure (SMILES): C(=C\c1ccc2ccccc2c1)/c1ccc(N(c2ccccc2)c2ccccc2)cc1
photoluminescence quantum yield (in CC#N): 0.42
photoluminescence quantum yield (in CCCCCC): 0.61

Structure (SMILES): CC(C)[Si](C#Cc1c2ccccc2c(C#C[Si](C(C)C)(C(C)C)C(C)C)c2nc3c(nc12)Cc1ccccc1-3)(C(C)C)C(C)C
photoluminescence quantum yield (in CCCCCC): 0.47

Structure (SMILES): Fc1cc(-c2ccc(-c3nc4cc(Br)ccc4[nH]3)cc2)ccc1-c1ccc(-c2nc3cc(Br)ccc3[nH]2)cc1
photoluminescence quantum yield (in CN(C)C=O): 0.48

Structure (SMILES): COc1ccc(C2=[N+]3C(=C(c4ccc(I)cc4)c4ccc(-c5ccc(OC)cc5)n4[B-]3(F)F)C=C2)cc1
photoluminescence quantum yield (in ClC(Cl)Cl): 0.42

Structure (SMILES): COc1ccc2cc(/C=C/c3ccccc3)c(=O)oc2c1
photoluminescence quantum yield (in CC#N): 0.71

Structure (SMILES): COc1cc2c(cc1/C=C(\C#N)c1nc3ccccc3s1)c1ccccc1n2C
photoluminescence quantum yield (in C1CCOC1): 0.002
photoluminescence quantum yield (in CC#N): 0.001
photoluminescence quantum yield (in CCOC(C)=O): 0.003
photoluminescence quantum yield (in CN(C)C=O): 0.003
photoluminescence quantum yield (in CO): 0.001
photoluminescence quantum yield (in CS(C)=O): 0.004
photoluminescence quantum yield (in Cc1ccccc1): 0.003
photoluminescence quantum yield (in ClC(Cl)Cl): 0.003
photoluminescence quantum yield (in ClCCl): 0.003

Structure (SMILES): O=c1oc2ccccc2c(O)c1C(CC(O)c1ccc(-c2ccc(Br)cc2)cc1)c1ccccc1 (stereo unspecified)
photoluminescence quantum yield (in CC#N): 0.06
photoluminescence quantum yield (in CCO): 0.058
photoluminescence quantum yield (in CO): 0.034
photoluminescence quantum yield (in O): 0.017

Structure (SMILES): O=S1(=O)c2ccccc2-c2cc(-c3c4ccccc4cc4ccccc34)ccc21
photoluminescence quantum yield (in C1CCCCC1): 0.36
photoluminescence quantum yield (in CC#N): 0.14
photoluminescence quantum yield (in ClCCl): 0.24

Structure (SMILES): COc1cc2c(cc1OC)C1=C[C@H](c3ccc(Cl)cc3)C3(C(C#N)=C(C#N)N1CC2)c1cc(Br)ccc1-c1ccc(Br)cc13
photoluminescence quantum yield (in ClCCl): 0.00019

Structure (SMILES): CCN(CC)c1ccc(-c2nc3c(c4c2-c2ccc(C#N)cc2CC4)-c2ccc(C#N)cc2CC3)cc1
photoluminescence quantum yield (in C1CCOC1): 0.74
photoluminescence quantum yield (in CC#N): 0.339
photoluminescence quantum yield (in CCCCCC): 0.209
photoluminescence quantum yield (in CCOC(C)=O): 0.565
photoluminescence quantum yield (in CO): 0.148
photoluminescence quantum yield (in CS(C)=O): 0.47
photoluminescence quantum yield (in Cc1ccccc1): 0.427
photoluminescence quantum yield (in ClCCl): 0.842

Structure (SMILES): Cc1ccccc1/C(C#N)=C/c1ccc(N(C)C)cc1
photoluminescence quantum yield (in C1CCOC1): 0.011
photoluminescence quantum yield (in C1COCCO1): 0.01
photoluminescence quantum yield (in CC#N): 0.014
photoluminescence quantum yield (in CCCCCC): 0.012
photoluminescence quantum yield (in CCCCCCC): 0.008
photoluminescence quantum yield (in CCCCCO): 0.01
photoluminescence quantum yield (in CCCCO): 0.006
photoluminescence quantum yield (in CCCO): 0.008
photoluminescence quantum yield (in CCO): 0.006
photoluminescence quantum yield (in CCOC(C)=O): 0.007
photoluminescence quantum yield (in CN(C)C=O): 0.015
photoluminescence quantum yield (in CO): 0.005
photoluminescence quantum yield (in CS(C)=O): 0.011
photoluminescence quantum yield (in Cc1ccccc1): 0.021
photoluminescence quantum yield (in ClC(Cl)Cl): 0.009

Structure (SMILES): CCCC1=Cc2nc1ccc1[nH]c(cc1CCC)c1nc(c(NC(=O)CCCC(=O)OC)cc3[nH]c2cc3CCC)C(CCC)=C1
photoluminescence quantum yield (in Cc1ccccc1): 0.2

Structure (SMILES): Cc1ccc2nc3[nH]c(=O)[nH]c(=O)c3nc2c1C
photoluminescence quantum yield (in CC#N): 0.041
